What was measured:
[1] = system: MDA-MB-231; assay: Antiproliferative activity against human MDA-MB-231 cells after 72 hrs by MTT assay; assay type: functional, cell-based; conditions: MDA-MB-231, 72 h
[2] = system: HeLa; assay: Antiproliferative activity against human HeLa cells after 72 hrs by MTT assay; assay type: functional, cell-based
[3] = system: MCF7; assay: Antiproliferative activity against human MCF7 cells after 72 hrs by MTT assay; assay type: functional, cell-based; conditions: MCF7, 72 h
[4] = system: 2008; assay: Antiproliferative activity against human 2008 cells after 72 hrs by MTT assay; assay type: functional, cell-based; conditions: Homo sapiens, 2008, 72 h
[5] = system: 2008; assay: Antiproliferative activity against resistant human 2008 cells clone 4 harboring MRP1 after 72 hrs by MTT assay; assay type: functional, cell-based; conditions: Homo sapiens, 2008, 72 h
[6] = system: 2008; assay: Antiproliferative activity against resistant human 2008 cells clone 6 harboring MRP1 after 72 hrs by MTT assay; assay type: functional, cell-based; conditions: Homo sapiens, 2008, 72 h
[7] = system: SW1573; assay: Antiproliferative activity against human SW1573 cells after 72 hrs by MTT assay; assay type: functional, cell-based; conditions: SW1573, 72 h
[8] = system: SW1573; assay: Antiproliferative activity against resistant human SW1573 2R 160 cells harboring P-gp after 72 hrs by MTT assay; assay type: functional, cell-based; conditions: SW1573, 72 h
[9] = Antiproliferative activity against human MCF7/MX cells after 72 hrs by MTT assay; assay type: functional, cell-based
[10] = Antiproliferative activity against human MCF7/DX cells after 72 hrs by MTT assay; assay type: functional, cell-based
[11] = target: RAC-alpha serine/threonine-protein kinase (Homo sapiens, UniProt P31749); assay: Inhibition of PH domain lacking AKT1 (unknown origin) using Tamara-labeled GRPRTSSFAEG peptide as substrate after 90 mins by fluorescence polarization IMAP assay
[12] = system: Rattus norvegicus; assay: Toxicity in overnight fasted albino Wistar rat assessed as clinical signs at 300 to 5000 mg/kg, po administered as single dose followed by fasting for 3 hrs measured for every 1 hr up to 12 hrs on first day of dosing and thereafter twice in a day for 14 days; assay type: organism-based; conditions: in vivo
[13] = system: Rattus norvegicus; assay: Toxicity in overnight fasted albino Wistar rat assessed as body weight at 5000 mg/kg, po administered as single dose followed by fasting for 3 hrs measured on day 1 post dose (reference value: 162 +/- 8 g); assay type: organism-based; conditions: in vivo
[14] = system: Rattus norvegicus; assay: Toxicity in overnight fasted albino Wistar rat assessed as body weight at 300 mg/kg, po administered as single dose followed by fasting for 3 hrs measured on day 2 post dose (reference value: 165 +/- 12 g); assay type: organism-based; conditions: in vivo
[15] = system: Rattus norvegicus; assay: Toxicity in overnight fasted albino Wistar rat assessed as body weight at 2000 mg/kg, po administered as single dose followed by fasting for 3 hrs measured on day 2 post dose (reference value: 165 +/- 12 g); assay type: organism-based; conditions: in vivo
[16] = system: Rattus norvegicus; assay: Toxicity in overnight fasted albino Wistar rat assessed as body weight at 5000 mg/kg, po administered as single dose followed by fasting for 3 hrs measured on day 2 post dose (reference value: 165 +/- 12 g); assay type: organism-based; conditions: in vivo
[17] = system: Rattus norvegicus; assay: Toxicity in overnight fasted albino Wistar rat assessed as body weight at 2000 mg/kg, po administered as single dose followed by fasting for 3 hrs measured on day 3 post dose (reference value: 166 +/- 10 g); assay type: organism-based; conditions: in vivo
[18] = system: Rattus norvegicus; assay: Toxicity in overnight fasted albino Wistar rat assessed as body weight at 5000 mg/kg, po administered as single dose followed by fasting for 3 hrs measured on day 4 post dose (reference value: 169 +/- 5 g); assay type: organism-based; conditions: in vivo
[19] = system: Rattus norvegicus; assay: Toxicity in overnight fasted albino Wistar rat assessed as body weight at 300 mg/kg, po administered as single dose followed by fasting for 3 hrs measured on day 5 post dose (reference value: 172 +/- 14 g); assay type: organism-based; conditions: in vivo
[20] = system: Rattus norvegicus; assay: Toxicity in overnight fasted albino Wistar rat assessed as body weight at 2000 mg/kg, po administered as single dose followed by fasting for 3 hrs measured on day 5 post dose (reference value: 172 +/- 14 g); assay type: organism-based; conditions: in vivo
[21] = system: Rattus norvegicus; assay: Toxicity in overnight fasted albino Wistar rat assessed as body weight at 300 mg/kg, po administered as single dose followed by fasting for 3 hrs measured on day 6 post dose (reference value: 173 +/- 12 g); assay type: organism-based; conditions: in vivo
[22] = system: Rattus norvegicus; assay: Toxicity in overnight fasted albino Wistar rat assessed as body weight at 300 mg/kg, po administered as single dose followed by fasting for 3 hrs measured on day 7 post dose (reference value: 175 +/- 10 g); assay type: organism-based; conditions: in vivo
[23] = system: Rattus norvegicus; assay: Toxicity in overnight fasted albino Wistar rat assessed as body weight at 2000 mg/kg, po administered as single dose followed by fasting for 3 hrs measured on day 7 post dose (reference value: 175 +/- 10 g); assay type: organism-based; conditions: in vivo
[24] = system: Rattus norvegicus; assay: Toxicity in overnight fasted albino Wistar rat assessed as body weight at 2000 mg/kg, po administered as single dose followed by fasting for 3 hrs measured on day 8 post dose (reference value: 177 +/- 8 g); assay type: organism-based; conditions: in vivo
[25] = system: Rattus norvegicus; assay: Toxicity in overnight fasted albino Wistar rat assessed as body weight at 5000 mg/kg, po administered as single dose followed by fasting for 3 hrs measured on day 8 post dose (reference value: 177 +/- 8 g); assay type: organism-based; conditions: in vivo
[26] = system: Rattus norvegicus; assay: Toxicity in overnight fasted albino Wistar rat assessed as body weight at 300 mg/kg, po administered as single dose followed by fasting for 3 hrs measured on day 9 post dose (reference value: 180 +/- 12 g); assay type: organism-based; conditions: in vivo
[27] = system: Rattus norvegicus; assay: Toxicity in overnight fasted albino Wistar rat assessed as body weight at 2000 mg/kg, po administered as single dose followed by fasting for 3 hrs measured on day 9 post dose (reference value: 180 +/- 12 g); assay type: organism-based; conditions: in vivo
[28] = system: Rattus norvegicus; assay: Toxicity in overnight fasted albino Wistar rat assessed as body weight at 5000 mg/kg, po administered as single dose followed by fasting for 3 hrs measured on day 9 post dose (reference value: 180 +/- 12 g); assay type: organism-based; conditions: in vivo
[29] = system: Rattus norvegicus; assay: Toxicity in overnight fasted albino Wistar rat assessed as body weight at 2000 mg/kg, po administered as single dose followed by fasting for 3 hrs measured on day 10 post dose (reference value: 182 +/- 15 g); assay type: organism-based; conditions: in vivo
[30] = system: Rattus norvegicus; assay: Toxicity in overnight fasted albino Wistar rat assessed as body weight at 5000 mg/kg, po administered as single dose followed by fasting for 3 hrs measured on day 10 post dose (reference value: 182 +/- 15 g); assay type: organism-based; conditions: in vivo
[31] = system: Rattus norvegicus; assay: Toxicity in overnight fasted albino Wistar rat assessed as body weight at 5000 mg/kg, po administered as single dose followed by fasting for 3 hrs measured on day 11 post dose (reference value: 185 +/- 8 g); assay type: organism-based; conditions: in vivo
[32] = system: Rattus norvegicus; assay: Toxicity in overnight fasted albino Wistar rat assessed as body weight at 300 mg/kg, po administered as single dose followed by fasting for 3 hrs measured on day 12 post dose (reference value: 186 +/- 13 g); assay type: organism-based; conditions: in vivo
[33] = system: Rattus norvegicus; assay: Toxicity in overnight fasted albino Wistar rat assessed as body weight at 300 mg/kg, po administered as single dose followed by fasting for 3 hrs measured on day 13 post dose (reference value: 188 +/- 16 g); assay type: organism-based; conditions: in vivo
[34] = system: Rattus norvegicus; assay: Toxicity in overnight fasted albino Wistar rat assessed as body weight at 2000 mg/kg, po administered as single dose followed by fasting for 3 hrs measured on day 13 post dose (reference value: 188 +/- 16 g); assay type: organism-based; conditions: in vivo
[35] = system: Rattus norvegicus; assay: Toxicity in overnight fasted albino Wistar rat assessed as body weight at 5000 mg/kg, po administered as single dose followed by fasting for 3 hrs measured on day 13 post dose (reference value: 188 +/- 16 g); assay type: organism-based; conditions: in vivo

RAC-alpha serine/threonine-protein kinase, sequence (P31749 whole entry, the tested form may be a part): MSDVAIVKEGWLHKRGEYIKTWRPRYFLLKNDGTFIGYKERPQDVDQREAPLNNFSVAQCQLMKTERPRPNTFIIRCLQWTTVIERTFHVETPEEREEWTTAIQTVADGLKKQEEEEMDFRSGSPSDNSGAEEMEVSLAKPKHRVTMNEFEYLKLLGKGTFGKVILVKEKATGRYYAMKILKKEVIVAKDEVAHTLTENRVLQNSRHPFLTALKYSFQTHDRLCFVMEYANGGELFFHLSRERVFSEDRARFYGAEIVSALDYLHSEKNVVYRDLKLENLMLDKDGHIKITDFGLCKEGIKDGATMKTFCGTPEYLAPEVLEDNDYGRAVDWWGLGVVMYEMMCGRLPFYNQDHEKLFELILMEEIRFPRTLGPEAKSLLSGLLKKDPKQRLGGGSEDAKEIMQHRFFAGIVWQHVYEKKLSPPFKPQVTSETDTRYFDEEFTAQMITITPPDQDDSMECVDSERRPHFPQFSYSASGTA

COC(=O)c1c(C)nc(NNC(=O)c2cccc3c(=O)c4ccccc4[nH]c23)nc1-c1ccc(OC)c(OC)c1
IC50 [1]: 62.9 µM
IC50 [2]: 63.5 µM
IC50 [3]: 65 µM
IC50 [4]: 26 µM
IC50 [5]: 42 µM
IC50 [6]: 65 µM
IC50 [7]: 4 µM
IC50 [8]: 12 µM
IC50 [9]: 78 µM
IC50 [10]: 78 µM
IC50 [11]: 0.311 µM
Activity [12]: Non-Toxic
Activity [13]: 188 g
Activity [14]: 183 g
Activity [15]: 184 g
Activity [16]: 189 g
Activity [17]: 186 g
Activity [18]: 196 g
Activity [19]: 188 g
Activity [20]: 190 g
Activity [21]: 190 g
Activity [22]: 191 g
Activity [23]: 195 g
Activity [24]: 197 g
Activity [25]: 208 g
Activity [26]: 193 g
Activity [27]: 199 g
Activity [28]: 212 g
Activity [29]: 202 g
Activity [30]: 215 g
Activity [31]: 219 g
Activity [32]: 199 g
Activity [33]: 204 g
Activity [34]: 209 g
Activity [35]: 224 g

From ChEMBL document CHEMBL4130433, “Acridone-pyrimidine hybrids- design, synthesis, cytotoxicity studies in resistant and sensitive cancer cells and molecular docking studies” (Eur J Med Chem, 2017)
